Source: article PMC4766633, “Unique PFK regulatory property from some mosquito vectors of disease, and from Drosophila melanogaster” (Parasites & Vectors, 2016)

Legend:
[1] = molecular target: T1, AaPFK (Aedes aegypti phosphofructokinase) (Aedes aegypti, UniProt A0A903U8I9); test: coupled NADH oxidation assay (aldolase/TPI/alpha-GPDH), […] nm; assay type: biochemical; conditions: substrate inhibition, allosteric, second site; 1 mM F6P, 5 mM MgCl2, pH 7.4; crude extract; unit not printed (ATP range given in mM)
T1 construct: gene 5568472; native enzyme in supernatant of whole-insect homogenate, not purified
T1 sequence (A0A903U8I9 1-790): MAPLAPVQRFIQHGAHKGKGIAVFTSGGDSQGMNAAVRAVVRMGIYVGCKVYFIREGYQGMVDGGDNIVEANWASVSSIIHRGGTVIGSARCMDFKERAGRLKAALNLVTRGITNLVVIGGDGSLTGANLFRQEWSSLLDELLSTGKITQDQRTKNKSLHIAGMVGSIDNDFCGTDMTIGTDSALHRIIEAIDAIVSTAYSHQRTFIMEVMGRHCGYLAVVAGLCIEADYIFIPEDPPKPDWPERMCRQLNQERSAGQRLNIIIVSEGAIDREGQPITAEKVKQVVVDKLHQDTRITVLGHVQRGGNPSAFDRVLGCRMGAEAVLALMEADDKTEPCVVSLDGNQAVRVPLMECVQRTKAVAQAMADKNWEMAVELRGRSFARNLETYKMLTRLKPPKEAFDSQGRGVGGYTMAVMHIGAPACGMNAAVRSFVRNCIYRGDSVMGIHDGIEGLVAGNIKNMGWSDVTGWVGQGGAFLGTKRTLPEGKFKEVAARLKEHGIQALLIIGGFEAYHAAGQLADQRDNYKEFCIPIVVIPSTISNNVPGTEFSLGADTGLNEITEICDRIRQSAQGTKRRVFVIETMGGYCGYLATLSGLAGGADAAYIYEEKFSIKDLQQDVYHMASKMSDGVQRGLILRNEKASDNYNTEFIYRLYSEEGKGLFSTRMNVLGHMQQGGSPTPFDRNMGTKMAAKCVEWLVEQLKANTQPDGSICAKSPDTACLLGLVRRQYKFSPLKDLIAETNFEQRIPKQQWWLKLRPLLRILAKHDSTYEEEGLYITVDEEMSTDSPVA

[2] = substrate: Nc1ncnc2c1ncn2[C@@H]1O[C@H](COP(=O)(O)OP(=O)(O)OP(=O)(O)O)[C@@H](O)[C@H]1O; test: cells, lysate or membranes; conditions: 1 mM F6P, 5 mM MgCl2, pH 7.4 (Fig. 1 legend: pH 8.0); crude extract; Table 1 labels this number Kprime = K0.5^h with h 0.741

Molecule	ATP / Activity [U (mg protein) ^-1] [1]	K0.5 [2]
Nc1ncnc2c1ncn2[C@@H]1O[C@H](COP(=O)(O)OP(=O)(O)OP(=O)(O)O)[C@@H](O)[C@H]1O [ATP]	4.536 ± 0.178	
AaPFK (Aedes aegypti phosphofructokinase) (Aedes aegypti) (protein) MAPLAPVQRFIQHGAHKGKGIAVFTSGGDSQGMNAAVRAVVRMGIYVGCKVYFIREGYQGMVDGGDNIVEANWASVSSIIHRGGTVIGSARCMDFKERAGRLKAALNLVTRGITNLVVIGGDGSLTGANLFRQEWSSLLDELLSTGKITQDQRTKNKSLHIAGMVGSIDNDFCGTDMTIGTDSALHRIIEAIDAIVSTAYSHQRTFIMEVMGRHCGYLAVVAGLCIEADYIFIPEDPPKPDWPERMCRQLNQERSAGQRLNIIIVSEGAIDREGQPITAEKVKQVVVDKLHQDTRITVLGHVQRGGNPSAFDRVLGCRMGAEAVLALMEADDKTEPCVVSLDGNQAVRVPLMECVQRTKAVAQAMADKNWEMAVELRGRSFARNLETYKMLTRLKPPKEAFDSQGRGVGGYTMAVMHIGAPACGMNAAVRSFVRNCIYRGDSVMGIHDGIEGLVAGNIKNMGWSDVTGWVGQGGAFLGTKRTLPEGKFKEVAARLKEHGIQALLIIGGFEAYHAAGQLADQRDNYKEFCIPIVVIPSTISNNVPGTEFSLGADTGLNEITEICDRIRQSAQGTKRRVFVIETMGGYCGYLATLSGLAGGADAAYIYEEKFSIKDLQQDVYHMASKMSDGVQRGLILRNEKASDNYNTEFIYRLYSEEGKGLFSTRMNVLGHMQQGGSPTPFDRNMGTKMAAKCVEWLVEQLKANTQPDGSICAKSPDTACLLGLVRRQYKFSPLKDLIAETNFEQRIPKQQWWLKLRPLLRILAKHDSTYEEEGLYITVDEEMSTDSPVA		0.43 ± 0.10 mM
